In patent US20030026786A1, “CHONDROGENIC DIFFERENTIATION OF HUMAN MESENCHYMAL STEM CELLS” (priority 1999, published 2003):
Entries after “also recorded” stand apart in the source; their conditions may differ.

Key:
[1] = test system: hMSCs in pellet culture; assay: Induction of hypertrophy in hMSC pellet culture by sequential treatment with two media; assay type: cell-based, human; settings: for inducing hypertrophy: other preliminary experiments
[2] = test system: Human bone marrow-derived mesenchymal stem cells; assay: Chondrogenic differentiation of MSC pellets with TGF-β1 or TGF-β3 (toluidine blue, collagen and COMP immunostaining); assay type: cell-based; settings: 10 ng/ml
Experimental: Human bone marrow-derived mesenchymal stem cells were cultured under standard conditions in the presence of 10% FBS until confluent. The cells were trypsinized, washed twice with chondrogenic medium, and resuspended at a density of 200,000 cells/ml in 15 ml polypropylene tubes in chondrogenic medium containing either 10 ng/ml TGF-01, TGF-β3 or neither of these. […] Frozen sections (8 μn) were stained with Toluidine blue. They were also stained for the following using standard immunocytochemistry protocols: collagen type 11, collagen type 1, and cartilage oligomeric matrix protein (COMP).

[3] = test system: human mesenchymal stem cells (hMSCs); assay: hMSC pellet culture in chondrogenic medium with low or high sugar concentration (pellet size, type II collagen immunostaining, toluidine blue); assay type: cell-based; settings: low-glucose medium supplemented with 3.5 g/l fructose; compared with high-glucose medium (4.5 g/l glucose)
Experimental: The hMSCs in pellet culture that are undergoing chondrogenic differentiation express the extracellular matrix proteoglycans mentioned above. […] In FIG. 1, the increase in the size of the cell pellet is evident when the medium contains “high glucose”. Changes in the size of hMSC pellets reflect the extent of synthesis of extracellular matrix components. Each pellet was formed by transferring an aliquot of 200,000 cells into ½ ml chondrogenic medium with 1 g/l (5.5 mM) glucose (left) or 4.5 g/l (25 mM) glucose ( right). The chondrogenic medium consisted of DMEM with the stated concentration of glucose and the following supplements: 100 nM dexamethasone, 10 ng/ml Transforming Growth Factor)β, 1 mM sodium pyruvate, 5 μg/ml ascorbic acid-2-phosphate, and 40 μg/ml proline. A 1:99 dilution of “ITS+” supplied 6.25 μg/ml bovine insulin, 6.25 μg/ml transferrin, […], 5.33 μg/ml linoleic acid, and 1.25 mg/ml bovine serum albumin. Final concentrations of 100 U/ml penicillin, 100 μg/ml streptomycin, and 250 ng/ml amphotericin B were supplied by a 1:99 dilution of a concentrated antibiotic solution. The cells and medium were placed into a 15 ml polypropylene conical-bottom centrifuge tube, and gently centrifuged (500× g for 5 min.), after which the tubes with loosened caps were placed in a humidified 5% CO2 incubator at 37 C. […]

[4] = no TGF-β3, 50 nM thyroxine, 20 mM β-glycerol phosphate, 10^−9 M dexamethasone, compared to standard chondrogenic medium for 28 days

N[C@@H](Cc1cc(I)c(Oc2ccc(O)c(I)c2)c(I)c1)C(=O)O [T3]
inducing hypertrophy [1]: effective

N[C@@H](Cc1cc(I)c(Oc2cc(I)c(O)c(I)c2)c(I)c1)C(=O)O [thyroxine]
hypertrophy ([1]; no TGF-β3, 50 nM thyroxine combined with 20 mM β-glycerol phosphate and 10^−9 M dexamethasone, from day 14 to day 28): hypertrophic differentiation of hMSCs was the predominant pathway; also recorded: more prominent | deposition of type X collagen (antibody X53) [1, 4]: irregular but pronounced increase | staining for type II and type IX collagens [1, 4]: intense staining | inducing hypertrophy [1]: effective | hypertrophic effect ([1]; withdrawing TGF-β3 and adding 50 nM thyroxine after two weeks of chondrogenic differentiation, two additional weeks of culture): pronounced hypertrophic effect

TGF-β1: member of the transforming growth factor-β superfamily, known promoter of cartilage formation
type II collagen expression ([2]; 14 days): localized expression of type II collagen | type II collagen staining ([2]; 21 days in culture): staining throughout the pellet except for the perimeter | type II collagen expression ([2]; after 8 days in pellet culture): no expression of type II collagen

O=C(CO)[C@@H](O)[C@H](O)[C@H](O)CO [fructose]
improvement to in vitro chondrogenic differentiation [3]: same improvement

B1: TGF-β3: transforming growth factor beta-3, chondroinductive agent (protein, UniProt P10600 301-412, looked up)
Transforming growth factor …: ALDTNYCFRNLEENCCVRPLYIDFRQDLGWKWVHEPKGYYANFCSGPCPYLRSADTTHSTVLGLYNTLNPEASASPCCVPQDLEPLTILYYVGRTPKVEQLSNMVVKSCKCS
cell morphology (hypertrophic cells) ([2]; 14 days): A large proportion of the cells were hypertrophic | pellet size ([2]; 14 days): larger in size | type II collagen expression ([2]; 14 days): expression of type II collagen throughout, except for a central area | COMP staining ([2]; 21 days in culture): reduced pericellular staining and increased interterritorial staining | type II collagen staining ([2]; 21 days in culture): very strong staining | type II collagen expression ([2]; after 8 days in pellet culture): some cells-ex fessed type II collagen | effect on chondrogenic differentiation of human MSCs in vitro ([2]; up to 21 days): dramatic effect; also recorded: more pronounced
